20 compounds from patent publication US7238685B2, “Benzo-fused heterocycles as endothelin antagonists” (Actelion Pharmaceuticals Ltd., priority 2001, dated 2007) can be followed below.

Assay [1] addresses T1, human recombinant ETA receptors (Homo sapiens, UniProt P25101).
T1 construct: expressed in transfected cells; host or cells: CHO cells (microsomal membranes)
T1 sequence (P25101 21-427): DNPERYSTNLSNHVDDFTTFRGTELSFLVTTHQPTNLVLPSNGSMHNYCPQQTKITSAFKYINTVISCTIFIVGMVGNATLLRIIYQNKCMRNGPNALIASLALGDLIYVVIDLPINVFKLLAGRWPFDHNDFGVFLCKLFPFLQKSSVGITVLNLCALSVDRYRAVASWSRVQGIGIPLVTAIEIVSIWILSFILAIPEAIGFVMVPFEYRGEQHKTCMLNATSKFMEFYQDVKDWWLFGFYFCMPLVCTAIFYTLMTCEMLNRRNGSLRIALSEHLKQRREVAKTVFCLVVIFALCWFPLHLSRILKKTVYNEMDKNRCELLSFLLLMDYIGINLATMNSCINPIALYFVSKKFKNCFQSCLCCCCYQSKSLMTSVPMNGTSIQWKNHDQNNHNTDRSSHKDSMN
In words: Inhibition of endothelin binding to membranes from CHO cells carrying human ET receptors (ETA).

Assay [2] concerns the target T2, human recombinant ETB receptors (Homo sapiens, UniProt P24530).
T2 construct: expressed in transfected cells; host or cells: CHO cells (microsomal membranes)
T2 sequence (P24530 27-442): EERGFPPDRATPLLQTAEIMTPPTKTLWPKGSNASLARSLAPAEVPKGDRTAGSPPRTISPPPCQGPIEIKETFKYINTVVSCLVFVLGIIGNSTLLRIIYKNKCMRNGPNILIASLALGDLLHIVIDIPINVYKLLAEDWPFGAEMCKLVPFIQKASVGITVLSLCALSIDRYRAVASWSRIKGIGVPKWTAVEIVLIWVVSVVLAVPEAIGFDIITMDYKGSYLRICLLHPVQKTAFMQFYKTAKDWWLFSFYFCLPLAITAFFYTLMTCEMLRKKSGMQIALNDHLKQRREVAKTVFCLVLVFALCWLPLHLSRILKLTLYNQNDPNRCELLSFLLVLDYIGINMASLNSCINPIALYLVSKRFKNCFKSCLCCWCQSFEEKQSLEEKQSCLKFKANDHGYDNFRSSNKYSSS
Description: Inhibition of endothelin binding to membranes from CHO cells carrying human ET receptors (ETB).

Assay [3] addresses T3, rat aortic rings (ETA receptors) (Rattus norvegicus, UniProt P26684).
T3 construct: from tissue; host or cells: thoracic aorta rings of adult Wistar rats, endothelium removed
T3 sequence (P26684 21-426): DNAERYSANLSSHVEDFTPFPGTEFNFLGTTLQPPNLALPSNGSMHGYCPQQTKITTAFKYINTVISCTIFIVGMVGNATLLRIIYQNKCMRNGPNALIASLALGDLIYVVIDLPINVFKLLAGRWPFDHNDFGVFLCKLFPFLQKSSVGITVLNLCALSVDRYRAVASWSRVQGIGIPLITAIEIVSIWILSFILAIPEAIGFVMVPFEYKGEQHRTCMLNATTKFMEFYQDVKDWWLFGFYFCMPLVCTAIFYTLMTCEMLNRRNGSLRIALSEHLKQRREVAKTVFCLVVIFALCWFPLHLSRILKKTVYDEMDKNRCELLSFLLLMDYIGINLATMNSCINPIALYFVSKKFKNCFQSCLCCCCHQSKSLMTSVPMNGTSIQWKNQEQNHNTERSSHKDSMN
In words: Inhibition of endothelin-1-induced contractions on isolated rat aortic rings. Particulars: read-out: pA2 (aortic rings) (converted).
Description: The functional inhibitory potency of the endothelin antagonists was assessed by their inhibition of the contraction induced by endothelin-1 on rat aortic rings (ETA receptors) and of the contraction induced by sarafotoxin S6c on rat tracheal rings (ETB receptors). Adult Wistar rats were anesthetized and exsanguinated. The thoracic aorta or trachea were excised, dissected and cut in 3–5 mm rings. The endothelium/epithelium was removed by gentle rubbing of the intimal surface. Each ring was suspended in a 10 ml isolated organ bath filled with Krebs-Henseleit solution (in mM; NaCl 115, KCl 4.7, MgSO4 1.2, KH2PO4 1.5, NaHCO3 25, CaCl2 2.5, glucose 10) kept at 37° C. and gassed with 95% O2 and 5% CO2. The rings were connected to force transducers and isometric tension was recorded (EMKA Technologies SA, Paris, France). The rings were stretched to a resting tension of 3 g (aorta) or 2 g (trachea). […] The functional inhibitory potency of the test compound was assessed by calculating the concentration ratio, i.e. the shift to the right of the EC50 induced by different concentrations of test compound. EC50 is the concentration of endothelin needed to get a half-maximal contraction, pA2 is the negative logarithm of the antagonist concentration which induces a two-fold shift in the EC50 value.

The term IC50 denotes the concentration that inhibits the measured activity by half.

Read-outs that look alike come from different tables or passages of the source.

Turning to `Cc1cc(C)nc(O[C@H](C(=O)O)[C@@]2(c3ccccc3)NCc3nnc(CC(=O)O)n3-c3ccccc32)n1` (racemic) [Example 27, (±)-(S*)-((6S*)-1-carboxymethyl-6-phenyl-5,6-dihydro-4H-2,3,5,10b-tetraaza-benzo[e]azulen-6-yl)-(4,6-dimethyl-pyrimidin-2-yloxy)-acetic acid], the IC50 turned out to be 13 nM in assay [1] and 126 nM in assay [2].
For the compound `COc1cc(OC)nc(O[C@H](C(=O)O)[C@@]2(c3ccccc3)NCC(=O)N(C)c3ccccc32)n1` (racemic) [Example 39, (±)-(S*)-((5S*)-1-methyl-2-oxo-5-phenyl-2,3,4,5-tetrahydro-1H-benzo[e][1,4]di-azepin-5-yl)-(4,6-dimethoxy-pyrimidin-2-yloxy)-acetic acid], the IC50 came to 29 nM in assay [1] (read-out: IC50 ETA) and 701 nM in assay [2] (read-out: IC50 ETB).
Taken in the same sequence, the figures for `COc1cc(CN2C(=O)CN[C@](c3ccccc3)([C@H](Oc3nc(OC)cc(OC)n3)C(=O)O)c3ccccc32)cc(OC)c1` (racemic) [Example 40, (±)-(S*)-[(5S*)-1-(3,5-dimethoxy-benzyl)-2-oxo-5-phenyl-2,3,4,5-tetrahydro-1H-benzo[e][1,4]diazepin-5-yl]-(4,6-dimethoxy-pyrimidin-2-yloxy)-acetic acid] were 8 nM and 52 nM.
The corresponding values for `Cc1cc(C)nc(O[C@H](C(=O)O)[C@@]2(c3ccccc3)NCC(=O)N(C)c3ccccc32)n1` (racemic) [Example 49, (±)-(S*)-(4,6-dimethyl-pyrimidin-2-yloxy)-((5S*)-1-methyl-2-oxo-5-phenyl-2,3,4,5-tetrahydro-1H-benzo[e][1,4]diazepin-5-yl)-acetic acid] are 17 nM and 240 nM.
For the compound `Cc1cc(C)nc(O[C@H](C(=O)O)[C@@]2(c3ccccc3)NCC(=O)N(CC(=O)O)c3ccccc32)n1` (racemic) [Example 50, (±)-(S*)-((5S*)-1-Carboxymethyl-2-oxo-5-phenyl-2,3,4,5-tetrahydro-1H-benzo[e][1,4]diazepin-5-yl)-(4,6-dimethyl-pyrimidin-2-yloxy)-acetoc acid], the IC50 in assay [1] (read-out: IC50 ETA) was found to be 12 nM; in assay [2] (read-out: IC50 ETB), 507 nM.
With `Cc1cc(C)nc(O[C@H](C(=O)O)[C@@]2(c3ccccc3)NCC(=O)N(CCO)c3ccccc32)n1` (racemic) [Example 56, (±)-(S*)-(4,6-Dimethyl-pyrimidin-2-yloxy)-[(5S*)-1-(2-hydroxy-ethyl)-2-oxo-5-phenyl-2,3,4,5-tetrahydro-1H-benzo[e][1,4]diazepin-5-yl]-acetic acid], the half-inhibitory concentration (IC50) was found to be 4 nM in assay [1] and 83 nM in assay [2].
Consider `COC(=O)c1ccc(CN2C(=O)CN[C@](c3ccccc3)([C@H](Oc3nc(C)cc(C)n3)C(=O)O)c3ccccc32)cc1` (racemic) [Example 58, (±)-4-{(5S*)-5-[(S*)-Carboxy-(4,6-dimethyl-pyrimidin-2-yloxy)-methyl]-2-oxo-5-phenyl-2,3,4,5-tetrahydro-benzo[e][1,4]diazepin-1-ylmethyl}-benzoic acid methyl ester], for which the IC50 turned out to be 2 nM in assay [1] (read-out: IC50 ETA) and 29 nM in assay [2] (read-out: IC50 ETB).
The corresponding values for `Cc1cc(C)nc(O[C@H](C(=O)O)[C@@]2(c3ccccc3)NCC(=O)N(CCc3cn(C)c4ccccc34)c3ccccc32)n1` (racemic) [Example 68] are 1 nM and 4 nM.
Taken in the same sequence, the figures for `Cc1cc(C)nc(O[C@H](C(=O)O)[C@@]2(c3ccccc3)NCC(=O)N(CCc3ccccc3)c3ccccc32)n1` (racemic) [Example 78] were 3 nM and 23 nM.
Consider `Cc1cc(C)c(CN2C(=O)CN[C@](c3ccccc3)([C@H](Oc3nc(C)cc(C)n3)C(=O)O)c3ccccc32)c(C)c1` (racemic) [Example 111], for which the IC50 in assay [1] (read-out: IC50 ETA) amounted to 3 nM; in assay [2] (read-out: IC50 ETB), 10 nM.
The corresponding values for `Cc1cc(C)nc(O[C@H](C(=O)O)[C@@]2(c3ccccc3)NCC(=O)N(c3ccccc3)c3ccccc32)n1` (racemic) [Example 117, (±)-(S*)-(4,6-dimethyl-pyrimidin-2-yloxy)-[(5S*)-2-oxo-1,5-diphenyl-2,3,4,5-tetrahydro-1H-benzo[e][1,4]diazepin-5-yl]-acetic acid] are 61 nM and 749 nM.
The corresponding values for `Cc1cc(C)nc(O[C@H](C(=O)O)[C@]2(c3ccccc3)c3ccccc3N(Cc3c(F)cc(F)cc3F)C(=O)CN2C)n1` (racemic) [Example 129, (±)-(S*)-(4,6-Dimethyl-pyrimidin-2-yloxy)-[(5S*)-4-methyl-2-oxo-5-phenyl-1-(2,4,6-trifluoro-benzyl)-2,3,4,5-tetrahydro-1H-benzo[e][1,4]diazepin-5-yl]-acetic acid] are 6 nM and 353 nM.
For the compound `COc1cc(OC)nc(O[C@H](C(=O)O)[C@@]2(c3ccccc3)NCC(=O)N(C)c3ccc(Cl)cc32)n1` (racemic) [Example 166, (±)-(1S*)-((5S*)-7-Chloro-1-methyl-2-oxo-5-phenyl-2,3,4,5-tetrahydro-1H-benzo[e][1,4]diazepin-5-yl)-(4,6-dimethoxy-pyrimidin-2-yloxy)-acetic acid], the Kb in assay [3] is 105 nM.
With `COc1cc(CN2C(=O)CN[C@](c3ccccc3)([C@H](Oc3nc(OC)cc(OC)n3)C(=O)O)c3cc(Cl)ccc32)cc(OC)c1` (racemic) [Example 167, (±)-(1S*)-[(5S*)-7-Chloro-1-(3,5-dimethoxy-benzyl)-2-oxo-5-phenyl-2,3,4,5-tetrahydro-1H-benzo[e][1,4]diazepin-5-yl]-(4,6-dimethoxy-pyrimidin-2-yloxy)-acetic acid], the 50% inhibitory concentration (IC50) in assay [1] (read-out: IC50 ETA) was found to be 36 nM; in assay [2] (read-out: IC50 ETB), 947 nM.
Taken in the same sequence, the figures for `Cc1cc(C)nc(O[C@H](C(=O)O)[C@@]2(c3ccccc3)NCC(=O)N(C)c3ccc(Cl)cc32)n1` (racemic) [Example 170, (±)-(1S*)-((5S*)-7-Chloro-1-methyl-2-oxo-5-phenyl-2,3,4,5-tetra-hydro-1H-benzo[e][1,4]diazepin-5-yl)-(4,6-dimethyl-pyrimidin-2-yloxy)-acetic acid] were 15 nM and 368 nM.
Taken in the same sequence, the figures for `Cc1cccc([C@]2([C@H](Oc3nc(C)cc(C)n3)C(=O)O)NCC(=O)N(C)c3ccccc32)c1` (racemic) [Example 187, (±)-(S*)-(4,6-Dimethyl-pyrimidin-2-yloxy)-[(5S*)-1-methyl-2-oxo-5-m-tolyl-2,3,4,5-tetrahydro-1H-benzo[e][1,4]diazepin-5-yl]-acetic acid] were 18 nM and 180 nM.
Taken in the same sequence, the figures for `Cc1cc(C)nc(O[C@H](C(=O)O)[C@@]2(c3cccc(-c4ccccc4)c3)NCC(=O)N(Cc3c(F)ccc(F)c3F)c3ccccc32)n1` (racemic) [Example 213] were 3 nM and 29 nM.
As to `COc1ccc(CN2C(=O)CN[C@](c3ccc(F)c(C)c3)([C@H](Oc3nc(C)cc(C)n3)C(=O)O)c3ccccc32)cc1` (racemic) [Example 218, (±)-(S*)-(4,6-Dimethyl-pyrimidin-2-yloxy)-[(5S*)-5-(4-fluoro-3-methyl-phenyl)-1-(4-methoxy-benzyl)-2-oxo-2,3,4,5-tetrahydro-1H-benzo[e][1,4]diazepin-5-yl]-acetic acid], the values for the IC50 in assay [1] (read-out: IC50 ETA) and in assay [2] (read-out: IC50 ETB) were 5 nM and 39 nM, respectively.
The corresponding values for `CCCCc1ccc(CN2C(=O)CN[C@](c3cccc(CCCC)c3)([C@H](Oc3nc(C)cc(C)n3)C(=O)O)c3ccccc32)cc1` (racemic) [Example 223] are 7 nM and 12 nM.
The corresponding values for `COC(=O)[C@@H](c1ccccc1)N1C(=O)CN[C@](c2ccccc2)([C@H](Oc2nc(C)cc(C)n2)C(=O)O)c2ccccc21` (relative stereo) [Example 52, (±)-(S*)-(4,6-Dimethyl-pyrimidin-2-yloxy)-[(5S*)-1-((R/S)-methoxycarbonyl-phenyl-methyl)-2-oxo-5-phenyl-2,3,4,5-tetrahydro-1H-benzo[e][1,4]diazepin-5-yl]-acetic acid] are 11 nM and 23 nM.
